Experimental data as given in US5453426A, “Sulfur-containing xanthine derivatives as adenosine antagonists” (priority 1994, dated 1995).
Read-outs that look alike come from different tables or passages of the source.

Legend:
A1 adenosine receptors = target: T1, A1 adenosine receptors (Rattus norvegicus, UniProt P25099); assay: Inhibition of binding of [3H]N6-phenylisopropyladenosine to A1 adenosine receptors in rat cerebral cortical membranes; conditions: for Ki (A2)/Ki (A1): ratio of A2 (rat striatum) to A1 (rat cortex) Ki; for A1 affinity/potency, in words: relative to the analogs named in the text
T1 construct: A1 adenosine receptors in rat cerebral cortical membranes; from tissue; host or cells: rat cerebral cortex membranes
T1 sequence (P25099 1-326): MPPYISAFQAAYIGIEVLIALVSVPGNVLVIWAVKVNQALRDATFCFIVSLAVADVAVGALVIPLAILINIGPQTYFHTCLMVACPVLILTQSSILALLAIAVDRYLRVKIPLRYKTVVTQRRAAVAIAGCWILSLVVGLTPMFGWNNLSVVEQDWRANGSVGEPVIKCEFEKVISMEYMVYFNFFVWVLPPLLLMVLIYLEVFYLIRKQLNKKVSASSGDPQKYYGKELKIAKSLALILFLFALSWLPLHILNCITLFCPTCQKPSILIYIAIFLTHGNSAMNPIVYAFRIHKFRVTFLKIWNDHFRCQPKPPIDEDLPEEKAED

A2 adenosine receptors = A2 adenosine receptors (Rattus norvegicus, UniProt P30543); assay: Inhibition of binding of [3H]N-ethylcarboxamidoadenosine to A2-adenosine receptors in rat striatal membranes; conditions: for A2 affinity/potency, in words: relative to the analogs named in the text
Method: Affinity at A1 - and A2 -adenosine receptors was measured in competitive binding assays, using as radioligands [^3 H]N^6 -phenylisopropyladenosine^17 (with rat cerebral cortical membranes) and [^3 H]5'-N-ethylcarboxamidoadenosine (with rat striatal membranes),^18 respectively.
N^6 -Cyclopentyladenosine was present at 50 nM to inhibit binding of the ligand at A1 -adenosine receptors. Inhibition of binding by a range of concentrations of xanthines was assessed in triplicate in at least three separate experiments. IC50 -values were converted to Ki-values by the method of Bruns et al,^18 using a conversion factor derived from the affinity of [^3 H]N-ethylcarboxamidoadenosine at A2 receptors and the Cheng-Prusoff equation.^19

[1] = rat cortical membranes, [3H]PIA, single determination in triplicate or average of three ± S.E.M., read-out: Ki A1-receptors
[2] = read-out: Ki A2-receptors, rat striatal membranes, [3H]NECA, single determination in triplicate or average of three ± S.E.M.

A2 adenosine receptors, sequence (P30543 whole entry): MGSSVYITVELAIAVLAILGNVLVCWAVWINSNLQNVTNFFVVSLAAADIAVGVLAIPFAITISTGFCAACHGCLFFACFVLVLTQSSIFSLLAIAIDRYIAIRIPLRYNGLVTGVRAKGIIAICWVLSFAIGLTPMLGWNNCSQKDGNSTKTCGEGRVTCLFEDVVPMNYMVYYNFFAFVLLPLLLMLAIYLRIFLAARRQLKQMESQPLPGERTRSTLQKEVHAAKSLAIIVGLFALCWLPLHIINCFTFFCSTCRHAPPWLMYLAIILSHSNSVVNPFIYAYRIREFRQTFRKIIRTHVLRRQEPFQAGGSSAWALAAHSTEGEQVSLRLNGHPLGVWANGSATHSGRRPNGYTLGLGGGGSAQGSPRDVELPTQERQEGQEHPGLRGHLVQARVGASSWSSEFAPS

Cn1c(=O)c2[nH]c(C3CCCC3)nc2n(C)c1=S [Compound 13]
Ki (A1 adenosine receptors; [1]): 8 nM | Ki (A2)/Ki (A1) (A1 adenosine receptors): 170 | Ki (A2 adenosine receptors): 1390 nM

CCCn1c(=O)c2[nH]c(C3CCCC3)nc2n(CCC)c1=S [Compound 14]
A1-selectivity, in words (A1 adenosine receptors; A1 versus A2 binding, relative to oxygen analogs): a greater margin of A1 -selectivity | Ki (A1 adenosine receptors; [1]): 0.655 ± 0.058 nM | Ki (A2)/Ki (A1) (A1 adenosine receptors): 479 | A1 affinity/potency, in words (A1 adenosine receptors): the A1 affinity was enhanced by the thio substitution | Ki (A2 adenosine receptors): 314 ± 62 nM

Cn1c(=O)c2[nH]c(-c3cccs3)nc2n(C)c1=O [Compound 17]
Ki (A1 adenosine receptors; [1]): 233 ± 48.6 nM | Ki (A2)/Ki (A1) (A1 adenosine receptors): 6.97 | Ki (A2 adenosine receptors): 1630 nM

Cn1c(=O)c2[nH]c(-c3ccsc3)nc2n(C)c1=O [Compound 18]
Ki (A1 adenosine receptors; [1]): 152 ± 27 nM | Ki (A2)/Ki (A1) (A1 adenosine receptors): 5.53 | Ki (A2 adenosine receptors): 841 ± 109 nM | A2 affinity/potency, in words (A2 adenosine receptors): Preference for 3-thienyl derivatives was evident particularly at the A2 -subtype

CCCn1c(=O)c2[nH]c(-c3cccs3)nc2n(CCC)c1=O [Compound 19]
Ki (A1 adenosine receptors; [1]): 16.1 ± 1.96 nM | Ki (A2)/Ki (A1) (A1 adenosine receptors): 23.6 | Ki (A2 adenosine receptors): 381 ± 27.7 nM

CCCn1c(=O)c2[nH]c(-c3ccsc3)nc2n(CCC)c1=O [Compound 20]
Ki (A1 adenosine receptors; [1]): 10 ± 0.03 nM | Ki (A2)/Ki (A1) (A1 adenosine receptors): 12.1 | Ki (A2 adenosine receptors): 121 ± 18.2 nM | A2 affinity/potency, in words (A2 adenosine receptors): Preference for 3-thienyl derivatives was evident particularly at the A2 -subtype

Cn1c(=O)c2nc(-c3cccs3)[nH]c2n(C)c1=S [Compound 21]
Ki (A1 adenosine receptors; [1]): 221 ± 43.3 nM | Ki (A2)/Ki (A1) (A1 adenosine receptors): 7.87 | Ki (A2 adenosine receptors; [2]): 1740 nM

CCCn1c(=O)c2[nH]c(-c3ccc(OCC(=O)O)cc3)nc2n(CCC)c1=O [Compound 27]
Ki (A1 adenosine receptors; [1]): 58 ± 3 nM | Ki (A2)/Ki (A1) (A1 adenosine receptors): 37.8 | Ki (A2 adenosine receptors; [2]): 2200 nM

CCCn1c(=O)c2[nH]c(-c3ccc(OCC(=O)O)cc3)nc2n(CCC)c1=S [Compound 28, 8-(4-(carboxymethyloxy)phenyl)-1,3-dipropyl-2-thioxanthine]
Ki (A1 adenosine receptors; [1]): 53.8 ± 7.1 nM | Ki (A2)/Ki (A1) (A1 adenosine receptors): 5.86 | Ki (A2 adenosine receptors): 315 ± 60.8 nM | enhancement of potency at A2-receptors by the 2-thio substitution (A2 adenosine receptors; 28 versus oxygen analog 27): 7 fold

CCCn1c(=O)c2[nH]c(-c3ccc(OCC(=O)OCC)cc3)nc2n(CCC)c1=O [Compound 29]
Ki (A1 adenosine receptors; [1]): 42 ± 3 nM | Ki (A2)/Ki (A1) (A1 adenosine receptors): > 238 | Ki (A2 adenosine receptors): > 10000 nM

CCCn1c(=O)c2[nH]c(-c3ccc(OCC(=O)OCC)cc3)nc2n(CCC)c1=S [Compound 30]
Ki (A1 adenosine receptors; [1]): 6.78 ± 0.64 nM | Ki (A2)/Ki (A1) (A1 adenosine receptors): > 740 | Ki (A2 adenosine receptors): > 5000 nM

CCCn1c(=O)c2[nH]c(-c3ccc(OCC(=O)NCCN)cc3)nc2n(CCC)c1=S [Compound 31]
Ki (A1 adenosine receptors; [1]): 2.69 ± 0.77 nM | Ki (A2)/Ki (A1) (A1 adenosine receptors): 9.8 | A1 affinity/potency, in words (A1 adenosine receptors): with less affinity at A1 -receptors than the corresponding oxygen analog | Ki (A2 adenosine receptors): 26.3 ± 1.76 nM | A2 affinity/potency, in words (A2 adenosine receptors): enhanced over the oxygen analog

CCCn1c(=O)c2[nH]c(-c3ccc(OCC(=O)NCCNC)cc3)nc2n(CCC)c1=S [Compound 33]
Ki (A1 adenosine receptors; [1]): 2.4 ± 0.28 nM

CCCn1c(=O)c2[nH]c(-c3ccc(OCC(=O)NCCN(C)C)cc3)nc2n(CCC)c1=O [Compound 34]
Ki (A2)/Ki (A1) (A1 adenosine receptors): 1.8 | Ki (A2 adenosine receptors): 5.03 ± 0.54 nM

CCCn1c(=O)c2[nH]c(-c3ccc(OCC(=O)NCCN(C)C)cc3)nc2n(CCC)c1=S [Compound 35]
Ki (A1 adenosine receptors; [1]): 2.55 ± 0.6 nM | Ki (A2)/Ki (A1) (A1 adenosine receptors): 11 | Ki (A2 adenosine receptors): 27.9 ± 7.5 nM

CCCn1c(=O)c2[nH]c(-c3ccc(OCC(=O)N(C)CCN(C)C)cc3)nc2n(CCC)c1=S [Compound 37, (8-[2-Dimethylaminoethyl[N-methylamino[carbonyl[methyl[oxyphenyl]]]]]-2-thio-1,3-dipropylxanthine)]
Ki (A1 adenosine receptors; [1]): 2.57 ± 0.67 nM | Ki (A2 adenosine receptors): 24.5 ± 8.4 nM

CCCn1c(=O)c2[nH]c(-c3ccc(OCC(=O)NCCNC(=O)[C@@H](CCCCNC(=O)OCc4ccccc4)NC(=O)OC(C)(C)C)cc3)nc2n(CCC)c1=S [Compound 39]
Ki (A2)/Ki (A1) (A1 adenosine receptors): 10 | Ki (A2 adenosine receptors): 870 nM

CCCn1c(=O)c2nc(-c3ccc(OCC(=O)NCCNC(=O)CCCCCCC(=O)ON4C(=O)CCC4=O)cc3)[nH]c2n(CCC)c1=S [Compound 45, N-Succinimidyl 8-[2-[4-(6-Carboxy-n-hexyl)carbonylaminoethyl[amino[carbonyl[methyloxyphenyl]]]]]-1,3-dipropyl-2-thioxanthine]
Ki (A1 adenosine receptors): 33.5 nM
